Assay results taken from PMC8154419, “Druggable Hot Spots in the Schistosomiasis Cathepsin B1 Target Identified by Functional and Binding Mode Analysis of Potent Vinyl Sulfone Inhibitors” (ACS Infectious Diseases, 2020).
“And” between values parts separate entries of the source, which are not always exact repeats. Equal values may be shown once. Read-outs that look alike come from different tables or passages of the source.

Columns and labels:
SmCB1 [1] = target: T1, SmCB1 (Schistosoma mansoni, UniProt Q8MNY2, T185A/T300A); design: method as in PMID 21832058; conditions: reference compounds; SmCB1, Cbz–Phe–Arg–AMC, pH 5.5; read-out: Inhibition IC50; cited from earlier work
T1 sequence (Q8MNY2 87-340 T185A/T300A): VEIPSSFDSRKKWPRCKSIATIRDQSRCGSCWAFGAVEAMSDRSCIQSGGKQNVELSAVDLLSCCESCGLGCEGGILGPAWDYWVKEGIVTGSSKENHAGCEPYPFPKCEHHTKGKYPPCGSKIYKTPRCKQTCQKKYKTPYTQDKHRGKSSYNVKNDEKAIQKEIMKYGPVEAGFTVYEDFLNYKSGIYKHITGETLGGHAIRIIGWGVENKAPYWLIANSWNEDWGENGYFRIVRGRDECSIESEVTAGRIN

[2] = test system: S. mansoni newly transformed schistosomula (NTS); test: Parasite assay and phenotype scoring of newly transformed schistosomula; type: cell-based, Schistosoma mansoni; conditions: score 0 to 4, 4 most severe
Protocol: The NTS were exposed to 1 and 10 μM inhibitors, and the resulting phenotypes were graded 0 through 4 from the least to the most severe (Figure 4B).[25],[26] […] The investigated inhibitors were also tested for their cytotoxicity against four human cell lines over 72 h.
Newly transformed schistosomula (NTS) of S. mansoni were prepared by mechanically transforming infective larvae (cercariae) as described previously.[67] NTS (200–300 parasites) were incubated in 200 μL of Basch Medium 169[68] containing 5% heat-inactivated fetal bovine serum, 100 U/mL penicillin, and 100 μg/mL streptomycin at 5% CO2 and 37 °C.[67],[69] […] We use single word or phrase “descriptors”[35] to record changes in movement, shape, and translucence (Figure S2).
Figure S2. Antischistosomal activity, cytotoxicity, and plasma stability of selected vinyl sulfone inhibitors. A. Induction of phenotypic alterations by the inhibitors was determined with newly transformed schistosomula (NTS) of S. mansoni. The inhibitors were tested at 1 and 10 µM concentrations for 24, 48 and 72 h, and the resulting phenotypes are shown as descriptor s .2 B. Example […]
captured using a Zeiss Axiovert 40 C inverted microscope (10x objective) and a Zeiss AxioCam MRc digital camera controlled by AxioVision 40 (v. 4.8.1.0) software. Scale bar = 0.2 mm. C. […]

[3] = In vitro plasma stability; type: in vitro ADME; conditions: 5 μM inhibitor, pooled human plasma, 30 min, 37°C
Protocol: Finally, we evaluated the metabolic stability of the inhibitors in human plasma in vitro. The stability was expressed as the percentage of parental compound remaining in plasma after 30 min of incubation.
Figure S2. Antischistosomal activity, cytotoxicity, and plasma stability of selected vinyl sulfone inhibitors. A. Induction of phenotypic alterations by the inhibitors was determined with newly transformed schistosomula (NTS) of S. mansoni. The inhibitors were tested at 1 and 10 µM concentrations for 24, 48 and 72 h, and the resulting phenotypes are shown as descriptor s .2 B. Example of an inhibitor-induced phenotype in NTS of S. mansoni versus untreated controls. Images were captured using a Zeiss Axiovert 40 C inverted microscope (10x objective) and a Zeiss AxioCam MRc digital camera controlled by AxioVision 40 (v. 4.8.1.0) software. Scale bar = 0.2 mm. C. Cytotoxicity of the inhibitors towards four human cell lines expressed as % viability vs. untreated cells. Cells were treated with the indicated concentration of the compounds for 72 h and assayed by means of the XTT test (as described previously3). Standard deviation values were within 10% of the mean of tetraplicates. D. In vitro plasma stability was determined for 5 µM inhibitors incubated with pooled human plasma (Biowest) for 30 min at 37°C. The samples were deproteinized by acetonitrile a nd quantified by LC-MS (Exion LC AD/QTrap 6500+, AB Sciex). Data are expressed as a percentage of the remaining parent compound after 30 min incubation; standard deviations of the means ar e gi ve n for duplicate measurements.
(1 picture or pasted object on this page, not shown here)

SmCB1 [4] = target: T1, SmCB1; test: SmCB1 kinetic inhibition assay (IC50) with fluorogenic substrate Cbz–Phe–Arg–AMC; type: biochemical; conditions: recombinant SmCB1, Cbz–Phe–Arg–AMC, pH 5.5; mean ± SE, triplicate; n.i.: no significant inhibition at 100 μM
Source text: Thirty-four peptidomimetic vinyl sulfone analogs (including vinyl sulfonamides and vinyl sulfonate esters) were explored as potential inhibitors of SmCB1 to infer the structural requirements of the inhibitor-binding subsites in the enzyme active site cleft. The compound scaffold is defined by positions P3 through P1′, and the substitutions were selected to provide a high diversity at P2 and P1′ (Table 1). These two positions were recently reported to display large differences in the subsite interaction energy in response to their structural modifications.[10] The compounds were screened in vitro against recombinant SmCB1, and their IC50 values were determined using a kinetic inhibition assay with the fluorogenic substrate Cbz–Phe–Arg–AMC.
(§1) Inhibition measurements were performed in triplicates in 96-well microplates (100 μL assay volume) at 37 °C. […] The kinetics of product release was continuously monitored in an Infinite M1000 microplate reader (Tecan) at excitation and emission wavelengths of 360 and 465 nm, respectively. The IC50 values were determined by nonlinear regression using GraFit software. To determine the inhibition constant k2nd, the enzyme (40 pM SmCB1 or 60 pM HuCB) was added to a mixture of the fluorogenic substrate Cbz–Phe–Arg–AMC (20 μM for SmCB1 and 33 μM for HuCB) and an inhibitor (0–1 μM) in the assay buffer under assay conditions as above. The hydrolysis of substrate was monitored for 30 min in a microplate reader as described above. An observed rate constant, kobs, was calculated at each inhibitor concentration by fitting the progress curve to the equation P = vi/kobs(1 – e^–kobst), where P is the product formation, vi is the initial velocity, and t is the reaction time. For both enzymes, kobs varied linearly with the inhibitor concentration showing that the dependence of kobs on the inhibitor concentration is nonsaturating. […] The second order rate constant, k2nd, was determined by fitting to the linear equation kobs = (k2nd[I])/(1 + [S]/KM), where [S] is the substrate concentration, [I] is the inhibitor concentration, and KM is the Michaelis–Menten constant. KM values determined for SmCB1 and HuCB were 25 and 38 μM, respectively.

SmCB1 [5] = target: T1, SmCB1; test: biochemical; type: biochemical; conditions: pH 5.5, read-out: second order rate constant k2nd SmCB1
Protocol: (§2) (A) Sensitivity of SmCB1 and its human ortholog cathepsin B (HuCB) to inhibitors. The second order rate constants were measured in a kinetic activity assay with the fluorogenic peptide substrate Cbz–Phe–Arg–AMC at pH 5.5. […] Resulting phenotypes observed at three time points were graded by the severity score ranging from 0 to 4, with 4 being the most severe (see Figure S2A,B).
as §1, with “above.” for “above. An observed rate constant, kobs, was calculated at each inhibitor concentration by fitting the progress curve to the equation P = vi/kobs(1 – e^–kobst), where P is the product formation, vi is the initial velocity, and t is the reaction time. For both enzymes, kobs varied linearly with the inhibitor concentration showing that the dependence of kobs on the inhibitor concentration is nonsaturating.”, “constant.” for “constant. KM values determined for SmCB1 and HuCB were 25 and 38 μM, respectively.”

SmCB1 [6] = test: biochemical; type: biochemical, Schistosoma mansoni; conditions: k2nd for SmCB1 to k2nd for human cathepsin B
Protocol: as §2
as §1, with “above.” for “above. An observed rate constant, kobs, was calculated at each inhibitor concentration by fitting the progress curve to the equation P = vi/kobs(1 – e^–kobst), where P is the product formation, vi is the initial velocity, and t is the reaction time. For both enzymes, kobs varied linearly with the inhibitor concentration showing that the dependence of kobs on the inhibitor concentration is nonsaturating.”, “constant.” for “constant. KM values determined for SmCB1 and HuCB were 25 and 38 μM, respectively.”

human cathepsin B (HuCB) = target: T2, human cathepsin B (HuCB) (Homo sapiens, UniProt P07858); test: Second order rate constant (k2nd) of inhibition, human cathepsin B; type: biochemical
T2 construct: purchased Calbiochem
Protocol: as §2
as §1, with “above.” for “above. An observed rate constant, kobs, was calculated at each inhibitor concentration by fitting the progress curve to the equation P = vi/kobs(1 – e^–kobst), where P is the product formation, vi is the initial velocity, and t is the reaction time. For both enzymes, kobs varied linearly with the inhibitor concentration showing that the dependence of kobs on the inhibitor concentration is nonsaturating.”, “constant.” for “constant. KM values determined for SmCB1 and HuCB were 25 and 38 μM, respectively.”

Compound: CC(C)C[C@H](NC(=O)N1CCOCC1)C(=O)N[C@H](/C=C/S(=O)(=O)c1ccccc1)CCc1ccccc1 [K11017, morpholino urea-leucyl-homophenylalanyl-vinylsulfone-phenyl]
- IC50 (SmCB1 [1]): 1.71 ± 0.13 nM

Compound: CN1CCN(C(=O)N[C@@H](Cc2ccccc2)C(=O)N[C@H](/C=C/S(=O)(=O)c2ccccc2)CCc2ccccc2)CC1 [K11777, N-methylpiperazine-phenylalanyl-homophenylalanyl-vinylsulfone-phenyl, reference compound]
- severity score ([2]; 1 μM, 24 hours): 0
- severity score ([2]; 1 μM, 48 hours): 0
- severity score ([2]; 1 μM, 72 hours): 3
- severity score ([2]; 10 μM, 24 hours): 0
- severity score ([2]; 10 μM, 48 hours): 1
- severity score ([2]; 10 μM, 72 hours): 3
- percentage of remaining parent compound in plasma [3]: 88%
- IC50 (SmCB1 [1]): 2.09 ± 0.08 nM

Compound: CCOC(=O)C1CCN(C(=O)N[C@@H](Cc2ccc(O)cc2)C(=O)N[C@H](/C=C/S(=O)(=O)c2ccccn2)CCc2ccccc2)CC1 [WRR-391]
- IC50 (SmCB1 [4]): ~0.2 nM and 0.24 nM
- kinact/KI (SmCB1 [5]): 208000 M⁻¹ s⁻¹
- selectivity ratio (SmCB1 [6]): ~1.4
- second order rate constant k2nd HuCB (human cathepsin B (HuCB); Cbz–Phe–Arg–AMC, pH 5.5, mean of triplicate): 152 806 M^–1 s^–1
- kinact/KI (human cathepsin B (HuCB); pH 5.5, read-out: second order rate constant k2nd HuCB): 153000 M⁻¹ s⁻¹
- severity score ([2]; 1 μM, 24 hours): 0
- severity score ([2]; 1 μM, 48 hours): 0
- severity score ([2]; 1 μM, 72 hours): 0
- severity score ([2]; 10 μM, 24 hours): 0
- severity score ([2]; 10 μM, 48 hours): 0
- severity score ([2]; 10 μM, 72 hours): 4
- percentage of remaining parent compound in plasma [3]: 54%
